Source: patent US9657031B2, “Ant-ligands molecules and biological applications” (MITOLOGICS, priority 2008, dated 2017)

How the values were obtained:
[1] = system: Wi-38 (normal lung fibroblasts); assay: Multiparametric analysis of cellular effects on Wi-38 cell line; assay type: cell-based; details: Wi-38, compared to HT-29, BxPC3, 48 h and 72 h treatments
Method: FIG. 4: Compound 1 induces low toxicity on normal fibroblast Wi-38 • A) Expression pattern of ANT isoforms in HT-29, BxPC3 and Wi-38 (normal lung fibroblasts) cell lines after RT-PCR reaction on total RNA • (B) Multiparametric analysis (mitochondrial transmembrane potential, plasma membrane permeabilization, phosphatidylserine exposure) of cellular effects of the ANT-ligand on Wi-38 cell line after 48 h and 72 h treatments.
MTT assay was used to evaluate the viability of a large range of human cell lines in presence of small molecules. Dose-response experiments allow us to determine a lethal-dose 50 (LD50; dose killing 50% of the cellular population) for each compound on a particular cell type after a 48-hour incubation. This viability assay is used as a first screening assay to identify cell-permeant molecules able to induce cell death (cytotoxic) or growth delay (cytostatic) among the 956 molecules of the ANT-ligands library. […] Indeed, the characterisation of cell death consists in a multiparametric analysis of treated-cells by flow cytometry (FacsCalibur, Becton Dickinson) where can be measured (1) the loss of mitochondrial trans-membrane potential (L′m; DIOC6 labelling), (2) the plasma membrane permeabilization (Propidium Iodide labeling) and (3) the phosphatidylserines exposure (Annexin-V-fitc labelling).

[2] = system: S. cerevisiae WT (W303) and JL1-3 (ΔANT 1, 2 & 3) strains; assay: Clonogenic assays on S. cerevisiae strains deficient for ANT isoforms; assay type: cell-based; details: ΔANT 1, 2 & 3 vs WT; viability at 48 h after 2 h incubation
Method: The importance of ANT isoforms in cytotoxic effects of the selected ANT-ligands has been evaluated using S. cerevisiae strains deficient for ANT isoforms (FIG. 5). Clonogenic assays on these strains are used to ensure that cytotoxic effects of the ANT-ligands are really due to the expression of ANTs in the cells.
FIG. 5: Target validation of compound 1 using ANT-deficient yeasts • (A) Quantitative estimation of yeasts viability at 48 h after 2 h incubation with compound 1 • (B) Illustration of WT (W303) and JL1-3 (LANT1, 2 and 3) yeast strains growth on plates at 48 h after 2 h incubation with compound 1.

lymphocytes (PBMC) = assay: Toxicity on lymphocytes (PBMC); assay type: cell-based; details: doses below 400 μM; data not shown
[3] = system: HT-29 and BxPC3 tumor cell lines; assay: Multiparametric analysis of cell death (flow cytometry) on tumor cell lines; assay type: cell-based, human; details: for effect of caspase / cathepsin B inhibitors on apoptosis induced by the ANT-ligand: z-VAD-fmk, Q-VD-OPH, Z-FA-fmk, Bax/Bak deletion
Method: FIG. 2: The ANT-ligand is pro-apoptotic on HT-29 and BxPC3 tumor cell lines • (A) Chemical structure of compound 1 • (B) Multiparametric analysis (chromatin condensation, mitochondrial transmembrane potential (L′m) loss, plasma membrane permeabilization, phosphatidylserine exposure) of cellular effects of the ANT-ligand on BxPC3 cell line after 48 h treatment. • (C) Effects of compound 1 on ADP/ATP translocator activity of ANT measured on isolated mitochondria from mice liver or HT-29 tumor cell line (IC50 is given in μM based on ANT assays) and on viability of HT-29 and BxPC3 tumor cell lines (LD50 is given in μM based on MTT assays at 48 h).
MTT assay was used to evaluate the viability of a large range of human cell lines in presence of small molecules. Dose-response experiments allow us to determine a lethal-dose 50 (LD50; dose killing 50% of the cellular population) for each compound on a particular cell type after a 48-hour incubation. This viability assay is used as a first screening assay to identify cell-permeant molecules able to induce cell death (cytotoxic) or growth delay (cytostatic) among the 956 molecules of the ANT-ligands library. We have chosen to select molecules having an LD50 below 50 μM on HT-29 (colon adenocarcinoma) or BxPC3 (pancreatic adenocarcinoma) cell lines. These molecules come into the ANT activity screening assays and the efficient ANT-inhibitors (IC50 below 50 μM) are investigated for their mechanisms of cell death induction. Indeed, the characterisation of cell death consists in a multiparametric analysis of treated-cells by flow cytometry (FacsCalibur, Becton Dickinson) where can be measured (1) the loss of mitochondrial trans-membrane potential (L′m; DIOC6 labelling), (2) the plasma membrane permeabilization (Propidium Iodide labeling) and (3) the phosphatidylserines exposure (Annexin-V-fitc labelling).

O=C(O)CCCCn1c(SCc2ccccc2Cl)nc2ccsc2c1=O [Compound 1]
toxicity on normal lung fibroblasts [1]: low toxicity
toxicity on normal lung fibroblasts ([1]; listed as compound 1): minor compared to tumor cells
resistance of ANT-deficient yeast strain versus wild-type [2]: more resistant to the compound 1 than the wild-type (WT) control strain
toxicity on lymphocytes (PBMC) (lymphocytes (PBMC)): no sign of toxicity
apoptosis hallmarks (mitochondrial potential loss, phosphatidylserine exposure, plasma membrane permeabilization, chromatin condensation) ([3]; multiparametric analysis): induces classical hallmarks of apoptosis
mitochondrial trans-membrane potential ([3]; tumor cells): induces dissipation of the mitochondrial trans-membrane potential
effect of caspase / cathepsin B inhibitors on apoptosis induced by the ANT-ligand [3]: inhibited by pan-caspase inhibitors (z-VAD-fmk, Q-VD-OPH) but not by the cathepsin B inhibitor (Z-FA-fmk)
effect of caspase / cathepsin B inhibitors on apoptosis induced by the ANT-ligand ([3]; listed as compound 1): abolished by caspase inhibitors
